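Test compounds were applied to cells in 96-well plates for 48 hours at 5 doses. GI50 is the concentration that inhibits growth by half.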 Calls of active or inactive are those of the source. Rule as the data show it: active = GI50 up to about 1.1 µM and inactive = higher.
Tests used:
Assay in all cases: DTP human tumour cell line panel, 48 h
[1] = system: 786-0
[2] = system: A498
[3] = system: A549
[4] = system: ACHN
[5] = system: BT-549
[6] = system: CAKI-1
[7] = system: CCRF-CEM
[8] = system: COLO 205
[9] = system: DU-145
[10] = system: EKVX
[11] = system: HCC 2998
[12] = system: HCT-116
[13] = system: HCT-15
[14] = system: HL-60
[15] = system: HOP-62
[16] = system: HOP-92
[17] = system: HT-29
[18] = system: Hs-578T
[19] = system: IGROV-1
[20] = system: K562
[21] = system: KM12
[22] = system: LOX IMVI
[23] = system: M14
[24] = system: MCF7
[25] = system: MDA-MB-231
[26] = system: MDA-MB-435
[27] = system: MDA-N
[28] = system: MOLT-4
[29] = system: NCI-H226
[30] = system: NCI-H23
[31] = system: NCI-H460
[32] = system: NCI-H522
[33] = system: NCI/ADR-RES
[34] = system: OVCAR-3
[35] = system: OVCAR-5
[36] = system: OVCAR-8
[37] = system: PC-3
[38] = system: RPMI-8226
[39] = system: RXF 393
[40] = system: SF-268
[41] = system: SF-295
[42] = system: SF-539
[43] = system: SK-MEL-28
[44] = system: SK-MEL-2
[45] = system: SK-MEL-5
[46] = system: SK-OV-3
[47] = system: SN12C
[48] = system: SNB-19
[49] = system: SNB-75
[50] = system: SR
[51] = system: SW-620
[52] = system: T47D
[53] = system: TK-10
[54] = system: U-251
[55] = system: UACC-257
[56] = system: UACC-62
[57] = system: UO-31
[58] = system: Malme-3M
[59] = system: OVCAR-4

`O=C(CCc1cc(O)cc(O)c1)NCCc1cc(OCc2ccccc2)cc(OCc2ccccc2)c1` was tested, and the GI50 [1] was 18.7 µM (inactive), the GI50 [2] was 21.2 µM (inactive) and the GI50 [3] was 5.28 µM (inactive). For the same compound, the GI50 [4] was 3.4 µM (inactive), the GI50 [5] was 16.4 µM (inactive) and the GI50 [6] was 19.2 µM (inactive). For the same compound, the GI50 [7] was 7.8 µM (inactive), the GI50 [8] was 20.5 µM (inactive) and the GI50 [9] was 15.8 µM (inactive). The GI50 [10] was 7.24 µM (inactive), the GI50 [11] was 19.6 µM (inactive) and the GI50 [12] was 12.9 µM (inactive). The GI50 [13] was 14.7 µM, the GI50 [14] was 2.7 µM (inactive) and the GI50 [15] was 16.4 µM (inactive). For the same compound, the GI50 [16] was 17.1 µM (inactive), the GI50 [17] was 14.8 µM (inactive) and the GI50 [18] was 16.8 µM (inactive). For the same compound, the GI50 [19] was 15.5 µM (inactive), the GI50 [20] was 4.8 µM (inactive) and the GI50 [21] was 12.6 µM (inactive). The GI50 [22] was 11.5 µM (inactive), the GI50 [23] was 13.2 µM (inactive) and the GI50 [24] was 4.92 µM (inactive). The GI50 [25] was 10.3 µM (inactive), the GI50 [26] was 11.1 µM (inactive) and the GI50 [27] was 13.7 µM (inactive). For the same compound, the GI50 [28] was 5.35 µM (inactive), the GI50 [29] was 15.9 µM (inactive) and the GI50 [30] was 10.4 µM (inactive). For the same compound, the GI50 [31] was 4.68 µM (inactive), the GI50 [32] was 11.9 µM (inactive) and the GI50 [33] was 17.8 µM (inactive). The GI50 [34] was 14.7 µM (inactive), the GI50 [35] was 20.2 µM (inactive) and the GI50 [36] was 13.7 µM (inactive). For the same compound, the GI50 [37] was 8.89 µM (inactive), the GI50 [38] was 7.45 µM (inactive) and the GI50 [39] was 8.55 µM (inactive). For the same compound, the GI50 [40] was 15 µM (inactive), the GI50 [41] was 10.4 µM (inactive) and the GI50 [42] was 16.2 µM (inactive). For the same compound, the GI50 [43] was 17.5 µM (inactive), the GI50 [44] was 10.2 µM (inactive) and the GI50 [45] was 10.6 µM (inactive). For the same compound, the GI50 [46] was 16.8 µM (inactive), the GI50 [47] was 14.9 µM (inactive) and the GI50 [48] was 2.41 µM (inactive). For the same compound, the GI50 [49] was 11 µM (inactive), the GI50 [50] was 4.83 µM (inactive) and the GI50 [51] was 15.8 µM (inactive). The GI50 [52] was 11.2 µM (inactive), the GI50 [53] was 21.4 µM (inactive) and the GI50 [54] was 13 µM (inactive). For the same compound, the GI50 [55] was 23.6 µM (inactive), the GI50 [56] was 16.9 µM (inactive) and the GI50 [57] was 3.55 µM (inactive).
In the case of `O=C1CC(O)c2c(Br)sc(Br)c21` (stereo unspecified), the GI50 [1] is reported as 4.1 µM (inactive), the GI50 [2] is reported as 19.9 µM (inactive) and the GI50 [3] is reported as 19.3 µM (inactive). For the same compound, the GI50 [4] was 16.2 µM (inactive), the GI50 [5] was 29.7 µM (inactive) and the GI50 [6] was 2.07 µM (inactive). The GI50 [7] was 0.728 µM (active), the GI50 [8] was 13.2 µM (inactive) and the GI50 [9] was 10.4 µM (inactive). The GI50 [10] was 10.4 µM (inactive), the GI50 [11] was 6 µM (inactive) and the GI50 [12] was 12.4 µM (inactive). The GI50 [13] was 11.3 µM, the GI50 [14] was 3.2 µM (inactive) and the GI50 [15] was 10.6 µM (inactive). For the same compound, the GI50 [16] was 17.9 µM (inactive), the GI50 [17] was 17.7 µM (inactive) and the GI50 [18] was 25.6 µM (inactive). For the same compound, the GI50 [19] was 15.9 µM (inactive), the GI50 [20] was 2.8 µM (inactive) and the GI50 [21] was 7.48 µM (inactive). The GI50 [22] was 4.48 µM (inactive), the GI50 [23] was 13.9 µM (inactive) and the GI50 [24] was 3.46 µM (inactive). The GI50 [25] was 15.2 µM (inactive), the GI50 [26] was 5.58 µM (inactive) and the GI50 [27] was 8.81 µM (inactive). For the same compound, the GI50 [28] was 1.91 µM (inactive), the GI50 [58] was 17.1 µM (inactive) and the GI50 [30] was 22.7 µM (inactive). The GI50 [31] was 16.9 µM (inactive), the GI50 [32] was 8.28 µM (inactive) and the GI50 [33] was 30.3 µM (inactive). For the same compound, the GI50 [34] was 4.69 µM (inactive), the GI50 [35] was 21.3 µM (inactive) and the GI50 [36] was 5.01 µM (inactive). The GI50 [37] was 13 µM (inactive), the GI50 [38] was 2.47 µM (inactive) and the GI50 [39] was 2.5 µM (inactive). For the same compound, the GI50 [40] was 18.1 µM (inactive), the GI50 [41] was 17.1 µM (inactive) and the GI50 [42] was 6.5 µM (inactive). The GI50 [43] was 15.7 µM (inactive), the GI50 [44] was 14 µM (inactive) and the GI50 [45] was 17.7 µM (inactive). For the same compound, the GI50 [46] was 16.6 µM (inactive), the GI50 [47] was 17.5 µM (inactive) and the GI50 [48] was 18.6 µM (inactive). For the same compound, the GI50 [49] was 16 µM (inactive), the GI50 [50] was 5.25 µM (inactive) and the GI50 [51] was 1.93 µM (inactive). For the same compound, the GI50 [52] was 9.59 µM (inactive), the GI50 [53] was 3.54 µM (inactive) and the GI50 [54] was 4.54 µM (inactive). The GI50 [55] was 3.85 µM (inactive), the GI50 [56] was 13.4 µM (inactive) and the GI50 [57] was 2.61 µM (inactive).
In the case of `CC(C)(C)O/N=C/c1cc(NC(=S)c2ccccc2)ccc1Cl`, the GI50 [1] is reported as 14.3 µM (inactive), the GI50 [2] is reported as 13.6 µM (inactive) and the GI50 [3] is reported as 15.7 µM (inactive). The GI50 [4] was 16.4 µM (inactive), the GI50 [5] was 15.6 µM (inactive) and the GI50 [6] was 29.3 µM (inactive). The GI50 [7] was 23 µM (inactive), the GI50 [8] was 14.3 µM (inactive) and the GI50 [9] was 17.3 µM (inactive). For the same compound, the GI50 [10] was 15.2 µM (inactive), the GI50 [11] was 11.3 µM (inactive) and the GI50 [12] was 12.3 µM (inactive). For the same compound, the GI50 [13] was 15.1 µM, the GI50 [14] was 16.3 µM (inactive) and the GI50 [15] was 13.7 µM (inactive). The GI50 [16] was 14.9 µM (inactive), the GI50 [17] was 13.7 µM (inactive) and the GI50 [18] was 22.5 µM (inactive). For the same compound, the GI50 [19] was 12.1 µM (inactive), the GI50 [21] was 12.7 µM (inactive) and the GI50 [22] was 15.7 µM (inactive). For the same compound, the GI50 [23] was 18.6 µM (inactive), the GI50 [24] was 22.9 µM (inactive) and the GI50 [25] was 21.3 µM (inactive). For the same compound, the GI50 [26] was 27.2 µM (inactive), the GI50 [27] was 14.2 µM (inactive) and the GI50 [28] was 8.71 µM (inactive). The GI50 [58] was 19 µM (inactive), the GI50 [29] was 16.8 µM (inactive) and the GI50 [30] was 15.6 µM (inactive). For the same compound, the GI50 [31] was 6.89 µM (inactive), the GI50 [32] was 11.3 µM (inactive) and the GI50 [33] was 15.6 µM (inactive). For the same compound, the GI50 [34] was 16.3 µM (inactive), the GI50 [59] was 18.3 µM (inactive) and the GI50 [35] was 23.8 µM (inactive). The GI50 [36] was 17.9 µM (inactive), the GI50 [37] was 16.4 µM (inactive) and the GI50 [38] was 11.5 µM (inactive). The GI50 [39] was 12.3 µM (inactive), the GI50 [40] was 21.1 µM (inactive) and the GI50 [41] was 18 µM (inactive). The GI50 [42] was 25.7 µM (inactive), the GI50 [43] was 14 µM (inactive) and the GI50 [44] was 16.6 µM (inactive). The GI50 [45] was 21 µM (inactive), the GI50 [46] was 29.4 µM (inactive) and the GI50 [47] was 12.2 µM (inactive). The GI50 [48] was 22.4 µM (inactive), the GI50 [50] was 15.1 µM (inactive) and the GI50 [51] was 18.7 µM (inactive). For the same compound, the GI50 [52] was 18.9 µM (inactive), the GI50 [53] was 12.2 µM (inactive) and the GI50 [54] was 17 µM (inactive). For the same compound, the GI50 [55] was 13.1 µM (inactive), the GI50 [56] was 14.6 µM (inactive) and the GI50 [57] was 12.8 µM (inactive).

Reference: ChEMBL document CHEMBL1201862, “PubChem BioAssay data set” (2004)
